Data reported in patent US7129073B2, “Regulation of neuronal function through metabotropic glutamate receptor signaling pathways” (The Rockefeller University, priority 2001, dated 2006).
“Also recorded” adds a separate entry of the source.

Columns and labels:
[1] = tested on: Thr75 of DARPP-32 (Cdk5 site); assay: DARPP-32 phospho-Thr75 immunoblot in neostriatal slices; assay type: cell-based, mouse; settings: for effect on basal phosphorylation of Thr75 / effect of pretreatment on the DHPG effect on Thr75 phosphorylation: U73122 10 μM 30 min, BAPTA/AM 20 μM; for effect of pretreatment on the DHPG effect on Thr75 phosphorylation: before DHPG 100 μM 2 min, L-AP3 100 μM 20 min, ZM241385 100 μM, cyclosporin A 5 μM 1 h
Description: (§1) Neostriatal slices were prepared from male C57/BL6 mice (6–8 weeks old) in accordance with methods known in the art (Nishi, A. et al. 1997, J. Neurosci. 17:8147–8155). Slices were treated with a drug. After drug treatment, slices were immediately frozen in liquid nitrogen, and stored at −80° C. until assayed.
(§2) Frozen slices were sonicated in hot homogenization buffer containing 1% SDS and 50 mM NaF, and samples were boiled for 10 minutes. SDS-PAGE sample buffer was then added and samples were boiled for 5 minutes. Samples (approximately 120 μg of total protein) were separated by SDS-PAGE (10% polyacrylamide) and then transferred to nitrocellulose. In most studies, immunoblots were first probed with anti-phospho-Ser137 DARPP-32 antibody. The blots were then stripped and probed with anti-phospho-Thr75 DARPP-32 antibody. Blots were stripped again and probed with anti-total DARPP-32 antibody. […] Chemiluminescence was detected by autoradiography and bands were quantified by analysis of scanned images using NIH IMAGE 1.52 software. Data were statistically analyzed by Student's t test in Microsoft EXCEL™ software as indicated.
(§3) Neostriatal slices were prepared from male C57/BL6 mice (6–8 weeks old) as disclosed (22). Slices were treated with drugs as specified in the text and figure legends. After drug treatment, slices were immediately frozen in liquid nitrogen, and stored at −80° C. until assayed.
(§4) Frozen slices were sonicated in hot homogenization buffer containing 1% SDS and 50 mM NaF, and samples were boiled for 10 min. SDS-PAGE sample buffer was then added and samples were boiled for 5 min. Samples (approximately 120 μg protein) were separated by SDS-PAGE (10% polyacrylamide) and transferred to nitrocellulose. Immunoblots were first probed with antiphospho-Ser-137 DARPP-32 antibody. The blots were stripped and probed with anti-phosphoThr-75 DARPP-32 antibody. Blots were stripped again and probed with anti-total DARPP-32 antibody. Antibody binding was detected by enhanced chemiluminescence (ECL) using X-ray film, and images were analyzed by laser scanning densitometry using NIH Image 1.52 software. Data were statistically analyzed by Student's t-test using Microsoft EXCEL™ software as indicated.

[2] = tested on: Ser137 of DARPP-32 (CK1 site); assay: DARPP-32 phospho-Ser137 immunoblot in neostriatal slices; assay type: cell-based, mouse; settings: for effect on basal phosphorylation of Ser137 / effect of pretreatment on the DHPG effect on Ser137 phosphorylation: U73122 10 μM 30 min, BAPTA/AM 20 μM; for effect of pretreatment on the DHPG effect on Ser137 phosphorylation: before DHPG 100 μM 2 min, L-AP3 100 μM 20 min, ZM241385 100 μM, cyclosporin A 5 μM 1 h
Description: as §1, §2, §3, §4

Cdk5 = Cdk5 kinase activity immunoprecipitated from neostriatal slices, histone H-1 as substrate; assay type: cell-based, mouse; settings: for effect of pretreatment on the effect of DHPG on Cdk5 kinase activity: CKI-7 dose-dependent, U73122 10 μM, BAPTA/AM 20 μM, cyclosporin A 5 μM
Description: as §1
For Cdk5 immunoprecipitation, striatal tissue slices (approximately 150 μg total protein) were lysed using a Dounce homogenizer and 1 ml of lysis buffer (150 mM NaCl, 20 mM Tris-HCl (pH 7.4), 1 mM EDTA, 0.5% NP-40, 5 mM NaF, 5 mM Na3PO4 and protease inhibitors). Lysates were centrifuged at 10,000 g for 10 minutes at 4° C. Supernatants were pre-cleared by adding rabbit IgG-conjugated agarose for 40 minutes at 4° C. Ten μl of Cdk5 antibody conjugated to agarose were added and samples were incubated for 1 hour at 4° C. with mixing. Agarose pellets were collected and washed three times with 1 ml of lysis buffer and two times with kinase assay buffer (50 mM Hepes (pH 7.5), 10 mM MgCl2, 1 mM DTT). Cdk5 kinase assays were performed in a 30-μl reaction mixtures with 2 μg Histone H-1, 500 μM ATP and 5 μCi of γ-^32P-ATP. Samples were incubated at 30° C. for 10 minutes, reactions were stopped by addition of SDS-sample buffer, and samples were boiled for 5 minutes. Samples were separated by SDS-PAGE and analyzed as disclosed above for CKI assays. Data were analyzed by Student's t-test in Microsoft Excel software as indicated, with significance defined as p<0.05.
(§5) CK1 assays were performed in a 30 μl assay volume with 2 μg of purified DARPP-32, 500 μM ATP and 5 μCi γ-^32P-ATP. Reactions were started by addition of the ATP. Samples were incubated at 30° C. for 10 min and reactions were stopped by addition of SDS-sample buffer and boiled for 5 min. Samples were separated by SDS-PAGE (12% polyacrylamide). SDS-PAGE gels were dried and exposed to Kodak film for autoradiography. Results were quantified using a Molecular Dynamics PHOSPHORIMAGER™. Immunoprecipitation and assay of Cdk5 were performed as disclosed (20).

HA-tagged CK1ε = assay: kinase activity of HA-CK1ε immunoprecipitated from transfected N2a cells, DARPP-32 as substrate; assay type: cell-based; settings: 30 min before DHPG 100 μM 2 min, CKI-7 100 μM, L-AP3 100 μM, U73122 10 μM, BAPTA/AM 20 μM, cyclosporin A 1 μM
Description: Neuroblastoma N2a cells were cultured in DMEM containing 5% fetal bovine serum (FBS) to 50–60% confluency. Four micrograms of the expression plasmid for HA-CK1ε were transfected into N2a cells in 100 mm dishes using FuGENE™ 6. Twenty-four hours after transfection, cells were incubated in phosphate-buffered Krebs-Henseleit solution (Sigma) for 10 minutes at room temperature. Cells were then incubated with or without CKI inhibitor for 30 minutes before treating with the group I mGluR agonist (S)-3,5-DHPG (100 μM) for 2 minutes. Cells were then lysed in one ml of lysis buffer containing 1% Nonidet P-40 (NP-40), 150 mM NaCl, 0.1% SDS, 50 mM Tris (pH 8.0), 5 mM Na3VO4, 20 mM NaF, 20 mM β-glycerol-phosphate and protease inhibitors. Lysates were centrifuged at 10,000 g and supernatants were used for immunoprecipitation and kinase assay.
For immunoprecipitation of CKI from N2a cells, lysates (1 mg of total protein) were pre-cleared with 5 μl of mouse IgG and 50 μl of protein A agarose for 30 minutes. Five μl of anti-HA antibody were added and samples were incubated for 1 hour at 4° C. Five μl of anti-mouse rabbit IgG and 50 μl of protein A agarose were then added for 45 minutes. Immuno-complexes were washed three times in lysis buffer, two times in kinase buffer (30 mM Hepes (pH 7.5), 7 mM MgCl2, 0.5 mM DTT). CKI assays were performed in a 30 μl assay volume with 2 μg of purified DARPP-32, 500 μM ATP and 5 μCi γ-^32P-ATP. Samples were incubated at 30° C. for 20 minutes, reactions were stopped by addition of SDS-sample buffer, and samples were boiled for 5 minutes. Samples were separated by SDS-PAGE (12% polyacrylamide). SDS-PAGE gels were dried and exposed to Kodak film for autoradiography. Bands were quantified by analysis using a Molecular Dynamics PhosphorImager.
Neuroblastoma N2a cells were cultured to 50–60% confluence in DMEM containing 5% fetal bovine serum. Four μg of the expression plasmid for HA-CK1ε or myc-MM2-CK1ε was transfected into N2a cells in 100 mm dishes using FuGENE6™. Twenty-four hours after transfection, cells were incubated at room temperature in phosphate-buffered Kreb's-Henseleit solution (Sigma) for 10 min and then with or without inhibitors for 30 min before treating with (S)-3,5-DHPG, for 2 min. Cells were then lysed in 1 ml of radio-immunoprecipitation (RIPA) buffer containing 1% NP-40, 150 mM NaCl, 0.1% SDS, 50 mM Tris, pH 8.0, 5 mM Na3VO4, 20 mM NaF, 20 mM β-glycerol-phosphate and protease inhibitors. Lysates were centrifuged at 10,000 g, and supernatants were used for immunoprecipitation and kinase assay.
For immunoprecipitation of CK1ε from N2a cells, lysates (1 mg of total protein) were precleared with 5 μl of mouse IgG (ICN) and 50 μl of protein A agarose for 30 min. Five μl (approximately 2 μg) of anti-HA or anti-myc antibody was added and samples were incubated for 1 h at 4° C. Five μl of anti-mouse rabbit IgG and 50 μl of protein A agarose were then added for 45 min. Immuno-complexes were washed 3 times in lysis buffer and 2 times in kinase buffer (30 mM Hepes, pH 7.5, 7 mM MgCl2, 0.5 mM DTT).
as §5

[3] = tested on: voltage-dependent Ca2+ channels; assay: whole-cell recordings of voltage-dependent Ca2+ channels in dissociated neostriatal neurons; assay type: cell-based, mouse; settings: CK1–7 100 μM, butyrolactone 25 μM (FIG. 6)
Description: Neostriatal neurons from 3- to 4-week-old mice were acutely dissociated by using procedures similar to those disclosed in Eberwine et al. (1995, Prog. Brain Res. 105:117–126). Whole-cell current recordings used standard voltage-clamp techniques. The internal solution consisted of 180 mM N-methyl-D-glucamine, 40 mM Hepes, 4 mM MgCl2, 0.5 mM 1,2-bis(2-aminophenoxy)ethane-N,N,N′,N′-tetraacetate, 12 mM phosphocreatine, 2 mM Na2ATP, 0.2 mM Na3GTP, 0.1 mM leupeptin (pH 7.2–7.3), 265–270 mosm/liter. The external solution consisted of 135 mM NaCl, 20 mM CsCl, 1 mM MgCl2, 10 mM Hepes, 0.001 mM tetrodotoxin, 5 mM BaCl2, 10 mM glucose (pH 7.3), 300–305 mosm/liter. Recordings were obtained with an Axon Instruments 200B patch clamp amplifier that was controlled and monitored with an IBM PC running PCLAMP™ (v. 8) with a DigiData 1320 series interface (Axon Instruments, Foster City, Calif.). Electrode resistances were typically 2–4 MΩ in the bath. After seal rupture, series resistance (4–10 MΩ) was compensated (70–90%) and periodically monitored. Drugs were applied with a gravity-fed “sewer pipe” system. The array of application capillaries was positioned 250 μm from the cell under study. Solution changes were effected by altering the position of the array with a DC drive system controlled by a microprocessor-based controller (Newport-Klinger, Irvine, Calif.). Data analyses were performed with AXOGRAPH™ (Axon Instruments), […]™ (Albeck Software, Reading, Pa.), and […]™ (Abacus Concepts, Berkeley, Calif.).

ER = settings: read-out: IC50, competition with fluorescein-labeled estradiol for binding to ER; FP-based assay; cited from earlier work
[4] = slices treated with drug alone: DHPG 100 μM, ionomycin 2 μM
[5] = 1 μM butyrolactone, 30 min before DHPG 2 min
[6] = butyrolactone 5 μM and 10 μM, 30 min before DHPG 2 min

C[C@H](CCC(=O)O)C[C@H](C)C[C@H](C)C(=O)/C=C(\O)[C@H](C)C[C@H](C)C/C=C/[C@@H](C)[C@@H](O)[C@@H](C)[C@@H](O)C[C@@H]1CC[C@@](C)([C@H]2CC[C@@](C)([C@@H](C)O)O2)O1 [ionomycin]
effect on phosphorylation of Thr75 in DARPP-32 [1, 4]: increased phosphorylation
effect on phosphorylation of Ser137 in DARPP-32 [2, 4]: increased phosphorylation
increase in Cdk5 kinase activity (Cdk5; ionomycin 2 μM for 2 min): 2 fold

COc1ccc2c(c1)CC[C@@H]1[C@@H]2CC[C@]2(C)[C@@H](NCCCCCCN3C(=O)C=CC3=O)CC[C@@H]12 [U73122]
effect of pre-incubation on the ability of DHPG to increase CK1ε activity (HA-tagged CK1ε): abolished
effect on basal phosphorylation of Thr75 [1]: did not change
effect of pretreatment on the DHPG effect on Thr75 phosphorylation [1]: abolished
effect on basal phosphorylation of Ser137 [2]: did not change
effect of pretreatment on the DHPG effect on Ser137 phosphorylation [2]: abolished
effect of pretreatment on the effect of DHPG on Cdk5 kinase activity (Cdk5): abolished

O=C1CCCO1 [butyrolactone]
effect on basal Ca2+ currents [3]: significant reduction; also recorded: reduced
effect on the enhancement of Ca2+ currents by DHPG ([3]; DHPG 100 μM): eliminated
effect on basal or DHPG-stimulated DARPP-32 phosphorylation at Thr75 [1, 5]: little effect
effect on basal and DHPG-stimulated phosphorylation of Thr75 [1, 6]: decreased in a dose-dependent manner
effect on basal or DHPG-stimulated DARPP-32 phosphorylation at Ser137 [2, 5]: little effect
effect on basal and DHPG-stimulated phosphorylation of Ser137 [2, 6]: unaffected

Nc1nc(NCCc2ccc(O)cc2)nc2nc(-c3ccco3)nn12 [ZM241385]
effect of pretreatment on the DHPG effect on Thr75 phosphorylation [1]: did not affect
effect of pretreatment on the DHPG effect on Ser137 phosphorylation [2]: did not affect

4-OH-tamoxifen
IC50 (ER): 26 nM

N[C@@H](CP(=O)(O)O)C(=O)O [L-AP3]
effect of pre-incubation on the ability of DHPG to increase CK1ε activity (HA-tagged CK1ε): blocked
effect of pretreatment on the DHPG effect on Thr75 phosphorylation [1]: blocked
effect of pretreatment on the DHPG effect on Ser137 phosphorylation [2]: blocked

CC(=O)OCOC(=O)CN(CC(=O)OCOC(C)=O)c1ccccc1OCCOc1ccccc1N(CC(=O)OCOC(C)=O)CC(=O)OCOC(C)=O [BAPTA/AM]
effect of pre-incubation on the ability of DHPG to increase CK1ε activity (HA-tagged CK1ε): abolished
effect on basal phosphorylation of Thr75 [1]: did not change
effect of pretreatment on the DHPG effect on Thr75 phosphorylation [1]: abolished
effect on basal phosphorylation of Ser137 [2]: did not change
effect of pretreatment on the DHPG effect on Ser137 phosphorylation [2]: abolished
effect of pretreatment on the effect of DHPG on Cdk5 kinase activity (Cdk5): abolished

17β-estradiol
IC50 (ER): 5.6 nM
